Experimental data: US10131652B2, “Pyrimidinyloxy benzene derivatives as herbicides” (E. I. DU PONT DE NEMOURS AND COMPANY, priority 2014, dated 2018)

How the values were obtained:
Experiment in all cases: Test F pre-/postemergence plant response
Type in all cases: in vivo
Conditions in all cases: scale 0 to 100
[1] = tested on: ragweed (common ragweed, Ambrosia elatior)
Summary of the method: (§1)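 Visual rating versus untreated controls, 0–100 scale (0 = no effect, 100 = complete control), taken 14–21 d after treatment in greenhouse. Pre: seeds planted in silt loam, soil treated. Post: plants 2–18 cm, 1–4 leaves. Compound formulated in non-phytotoxic solvent plus surfactant.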

[2] = tested on: barnyardgrass (Echinochloa crus-galli)
Summary of the method: as §1

[3] = tested on: waterhemp (common waterhemp, Amaranthus rudis)
Summary of the method: as §1

[4] = tested on: hairy beggarticks (Bidens pilosa)
Summary of the method: as §1

[5] = tested on: field bindweed (Convolvulus arvensis)
Summary of the method: as §1

[6] = tested on: dayflower (Virginia (VA) dayflower, Commelina virginica)
Summary of the method: as §1

## FC(F)c1cc(-c2ccccc2Oc2ncc(Br)cn2)on1 [Compound 212]
[1]; 16 g ai/ha Postemergence
  Plant response rating, Ragweed: 20
[1]; 31 g ai/ha Postemergence
  Plant response rating, Ragweed: 20
[1]; 62 g ai/ha Postemergence
  Plant response rating, Ragweed: 30
[1]; 125 g ai/ha Postemergence
  Plant response rating, Ragweed: 50
[2]; 16 g ai/ha Postemergence
  Plant response rating, Barnyardgrass: 0
[2]; 31 g ai/ha Postemergence
  Plant response rating, Barnyardgrass: 0
[2]; 62 g ai/ha Postemergence
  Plant response rating, Barnyardgrass: 0
[2]; 125 g ai/ha Postemergence
  Plant response rating, Barnyardgrass: 10
[3]; 16 g ai/ha Postemergence
  Plant response rating, Waterhemp: 90
[3]; 31 g ai/ha Postemergence
  Plant response rating, Waterhemp: 90
[3]; 62 g ai/ha Postemergence
  Plant response rating, Waterhemp: 95
[3]; 125 g ai/ha Postemergence
  Plant response rating, Waterhemp: 100
[4]; 16 g ai/ha Postemergence
  Plant response rating, Beggarticks: 25
[4]; 31 g ai/ha Postemergence
  Plant response rating, Beggarticks: 40
[4]; 62 g ai/ha Postemergence
  Plant response rating, Beggarticks: 40
[4]; 125 g ai/ha Postemergence
  Plant response rating, Beggarticks: 40
[5]; 16 g ai/ha Postemergence
  Plant response rating, Field Bindweed: 30
[5]; 31 g ai/ha Postemergence
  Plant response rating, Field Bindweed: 40
[5]; 62 g ai/ha Postemergence
  Plant response rating, Field Bindweed: 60
[5]; 125 g ai/ha Postemergence
  Plant response rating, Field Bindweed: 70
[6]; 16 g ai/ha Postemergence
  Plant response rating, Dayflower, VA: 30
[6]; 31 g ai/ha Postemergence
  Plant response rating, Dayflower, VA: 20
[6]; 62 g ai/ha Postemergence
  Plant response rating, Dayflower, VA: 40
[6]; 125 g ai/ha Postemergence
  Plant response rating, Dayflower, VA: 50
